Assay results published in US7781459B2, “Carboxyalkoxy-substituted acyl-carboxyphenylurea derivatives and their use as medicaments” (Sanofi-Aventis Deutschland GmbH, priority 2002, dated 2010).
Like-named read-outs stand apart in the source and are kept apart here.

Tested on: glycogenolysis in primary cultures of rat hepatocytes
Experiment: Inhibitory potency on glycogenolysis in primary cultures of rat hepatocytes (glucagon-induced glucose production rate)
Format: cell-based
Conditions: Hepatocyte
Protocol: Analysis of Test Substances for their Inhibitory Potency on Glycogenolysis in Primary Cultures of Rat Hepatocytes
Hepatocytes were isolated from the livers of fed rats (Sprague-Dawley or Wistar, bodyweight 220-240 g) by means of a standard 2-stage perfusion first with calcium-free buffer solution followed by perfusion with collagenase-containing solution to break up the tissue assembly (Seglen et al, 1979). The cells were incubated in an incubator with 90% humidity at 37° C. and an atmosphere with 5% CO2 in air. The cultivation normally took place with Williams' medium E supplemented with 20 mM glucose, 0.1 mM fructose, 1 μM dexamethasone and 100 nM insulin. Glycogenolysis was induced by changing the culture medium to prewarmed carbogen-gassed Krebs-Henseleit bicarbonate Hepes (20 mM) buffer, pH 7.4, supplemented with 100 nM glucagon (time 0 min). The test substances were normally added at time 0 min as 100× stock solution in DMSO. The final DMSO concentration was not higher than 1% (v/v). The amount of glucose in the culture supernatant was determined after addition of glucagon in the presence and absence of test substance by removing small aliquots of the cell culture supernatant at times 0, 30, 60 and 90 min. The glucose concentration (mM) was determined by enzymatic methods in a biochemical analysis laboratory of Aventis Pharma Deutschland. The glucose production rate was found by linear regression of the glucose concentration at times 30, 60 and 90 min using the following formula:
Glucose production rate (mM/h)=mM glucose (90 min)−mM glucose (30 min).
The percent inhibition was calculated using the following formula: […]
IC50 values (IC50: the concentration (μM) of test substance which brings about a reduction of 50% in the glucose production rate) was estimated by standard curve fitting methods using the percent inhibitions obtained at relevant concentrations of test substance.

[1] = glycogenolysis induced with 100 nM glucagon, 50% reduction in glucose production rate, read-out: IC50 on hep.
[2] = comparison examples from WO 01/94300, glucagon-induced glycogenolysis, read-out: IC50 nm hep.

## O=C(O)COc1ccccc1NC(=O)NC(=O)c1ccc(F)cc1Cl [Example 1, 2-[3-(2-Chloro-4-fluorobenzoyl)ureido]phenoxyacetic acid]
[1]
  IC50: 1160 nM

## O=C(O)COc1cc(C(=O)O)ccc1NC(=O)NC(=O)c1ccc(F)cc1Cl [Example 2, 3-Carboxymethoxy-4-[3-(2-chloro-4-fluorobenzoyl)ureido]benzoic acid]
[1]
  IC50: 1460 nM

## COC(=O)CCCOc1cc(C(=O)O)ccc1NC(=O)NC(=O)c1cc(F)c(F)cc1Cl [Example 10, 4-[3-(2-Chloro-4,5-difluorobenzoyl)ureido]-3-(3-methoxycarbonylpropoxy)benzoic acid]
[1]
  IC50: 106 nM

## CC(=O)CCCCCOc1c(Cl)cc(NC(=O)NC(=O)c2ccc(F)cc2Cl)cc1Cl [Example No. 105 from WO 01/94300, reference compound]
[2]
  IC50: 17500 nM

## CC(=O)CCCCCOc1ccc(NC(=O)NC(=O)c2ccc(Cl)cc2Cl)c(F)c1 [Example No. 116 from WO 01/94300, reference compound]
[2]
  IC50: 13500 nM
